We go through twelve molecules from patent US10005774B2, “Syk inhibitors” (Gilead Sciences, Inc., priority 2013, dated 2018).

The first assay deals with Syk (Homo sapiens, UniProt P43405). In words: High Throughput Syk Biochemical Assay (KinEASE TR-FRET). Particulars: TABLE D, 20 μM ATP, 1 μM biotinylated peptide, 0.015 nM Syk, 30 min at room temperature, read-out: IC50. The method in brief:
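Two-step endpoint TR-FRET (KinEASE) measured Syk phosphorylation of an XL665-labelled peptide, detected with europium anti-phosphotyrosine antibody. Compounds were serially diluted in DMSO.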
In general terms: Time-resolved FRET reads energy transfer from a long-lived donor to a nearby acceptor.
In general, IC50 refers to the concentration at which inhibition is half-maximal. In the case of `C[C@@H](Oc1nc(-c2ccc(N3CCN(C(=O)OC(C)(C)C)CC3)cc2)cc2ncn(C)c12)[C@H]1CNC(=O)C1` [tert-butyl 4-(4-(3-methyl-4-((R)-1-((R)-5-oxopyrrolidin-3-yl)ethoxy)-3H-imidazo[4,5-c]pyridin-6-yl)phenyl)piperazine-1-carboxylate], the concentration for half-maximal inhibition (IC50) came to 18.3 nM.

As for `C[C@@H](Oc1nc(-c2cnn(CCF)c2)cc2ncn(C)c12)[C@H]1CNC(=O)C1` [(R)-4-((R)-1-(6-(1-(2-fluoroethyl)-1H-pyrazol-4-yl)-3-methyl-3H-imidazo[4,5-c]pyridin-4-yloxy)ethyl)pyrrolidin-2-one], the 50% inhibitory concentration (IC50) worked out at 13.2 nM.

For `CC[C@@H](Oc1nc(-c2ccc(OC)c(OC)c2)cc2ncn(C)c12)[C@H]1CNC(=O)C1`, the IC50 is 7.63 nM.

In the case of `C[C@@H](Oc1nc(-c2cnn(C(F)F)c2)cc2ncn(C)c12)[C@H]1CNC(=O)C1` [(R)-4-((R)-1-(6-(1-(difluoromethyl)-1H-pyrazol-4-yl)-3-methyl-3H-imidazo[4,5-c]pyridin-4-yloxy)ethyl)pyrrolidin-2-one], the IC50 was determined as 32.8 nM.

For the molecule `C[C@@H](Oc1nc(-c2ccc3c(c2)C(=O)NCCO3)cc2ncn(C)c12)[C@H]1CNC(=O)C1` [7-(3-methyl-4-((R)-1-((R)-5-oxopyrrolidin-3-yl)ethoxy)-3H-imidazo[4,5-c]pyridin-6-yl)-3,4-dihydrobenzo[f][1,4]oxazepin-5(2H)-one], the 50% inhibitory concentration (IC50) was found to be 30.6 nM.

As to `COc1cc(-c2cc3ncn(C)c3c(O[C@H](C)[C@H]3CNC(=O)C3)n2)cc(OC)c1OC` [(R)-4-((R)-1-(3-methyl-6-(3,4,5-trimethoxyphenyl)-3H-imidazo[4,5-c]pyridin-4-yloxy)ethyl)pyrrolidin-2-one], the IC50 was found to be 5.26 nM.

As to `C[C@@H](Oc1nc(-c2cccc(S(C)(=O)=O)c2)cc2ncn(C)c12)[C@H]1CNC(=O)C1` [(R)-4-((R)-1-(3-methyl-6-(3-(methylsulfonyl)phenyl)-3H-imidazo[4,5-c]pyridin-4-yloxy)ethyl)pyrrolidin-2-one], the 50% inhibitory concentration (IC50) stood at 42.5 nM.

The same assay, now with this note: table 'ALL NEW COMPOUNDS IN 2014', 20 μM ATP, 1 μM biotinylated peptide, 0.015 nM Syk, 30 min at room temperature, read-out: Syk IC50.
As to `C[C@@H](Oc1cc(-c2cnccn2)cc2ncn(C3CC3)c12)[C@H]1CNC(=O)C1` [(R)-4-((R)-1-((1-cyclopropyl-5-(pyrazin-2-yl)-1H-benzo[d]imidazol-7-yl)oxy)ethyl)pyrrolidin-2-one], the IC50 was determined as 66.7 nM.

Turning to `Cc1cc(-c2cc3ncn(C4CC4)c3c(O[C@H](C)[C@H]3CNC(=O)C3)n2)sn1` [(R)-4-((R)-1-((3-cyclopropyl-6-(3-methylisothiazol-5-yl)-3H-imidazo[4,5-c]pyridin-4-yl)oxy)ethyl)pyrrolidin-2-one], the IC50 was 2.27 nM.

Take `C[C@@H](Oc1cc(-c2ccc3c(n2)NCCO3)cc2ncn(C3CC3)c12)[C@H]1CNC(=O)C1` [(R)-4-((R)-1-((1-cyclopropyl-5-(3,4-dihydro-2H-pyrido[3,2-b][1,4]oxazin-6-yl)-1H-benzo[d]imidazol-7-yl)oxy)ethyl)pyrrolidin-2-one]: the half-inhibitory concentration (IC50) amounted to 4.76 nM.

On to `C[C@@H](Oc1nc(-c2ccc(N3CCN(C4COC4)CC3)c(F)c2)cc2ncn(C3CC3)c12)[C@H]1CNC(=O)C1` [(R)-4-((R)-1-((3-cyclopropyl-6-(3-fluoro-4-(4-(oxetan-3-yl)piperazin-1-yl)phenyl)-3H-imidazo[4,5-c]pyridin-4-yl)oxy)ethyl)pyrrolidin-2-one], for which the IC50 stood at 2.37 nM.

As to `C[C@@H](Oc1nc(-c2cnc(C(C)(C)C)s2)cc2ncn(C3CC3)c12)[C@H]1CNC(=O)C1` [(R)-4-((R)-1-((6-(2-(tert-butyl)thiazol-5-yl)-3-cyclopropyl-3H-imidazo[4,5-c]pyridin-4-yl)oxy)ethyl)pyrrolidin-2-one], the half-inhibitory concentration (IC50) was 2.1 nM.
